Experimental data as given in patent US20080118591A1, “Bactericidal Formulations” (priority 2004, published 2008).

Assays:
[1] = tested on: gram-negative bacteria; assay: Rapid bactericidal effect of perfume ingredients (example 1, Mueller-Hinton broth, most probable number method); format: cell-based; conditions: for rapid (30 s) bactericidal activity on gram-negative bacteria (class): 30 s contact time, 0.1% or 0.2% (w/v) in Mueller-Hinton broth
Experimental: A sufficiently rapid bactericidal activity of a perfume ingredient against gram-negative bacteria according to the invention is determined as follows. The perfume ingredient must have a reduction factor of bacterial viability of at least 20-fold when it is tested in a concentration of 0.2% in Mueller Hinton Broth with a contact time of 30 seconds as described below. The perfume ingredient is dissolved in dimethylsulfoxide (DMSO) in a concentration of 4% (w/v). An aliquot (10 μl) of the solution is added to individual wells of microtiter plates.
200 μl of Mueller-Hinton broth containing a bacterial inoculum of 2.5×10^6 cfu (colony forming units) is added. After 30 s contact time, 20 μl of the test solution is removed and added to 180 μl of a neutralising solution (containing 3 g lecithin, 30 g Tween® 80, 5 g sodium thiosulfate, 1 g histidine, 30 g saponin, 8.5 g sodium chloride, 1 g tryptone and 1000 ml water). After 1 min incubation, the sample is serially diluted 1:1 in Micotiter-plates containing 100 μl Mueller-Hinton Broth per well, and then incubated for 24 h at 37° C. The maximal dilution showing bacterial growth is recorded to determine the number of surviving bacteria (so-called most probable number method, which is a well-known microbiological method), and results are compared to control samples without added perfumery chemicals. Reduction in bacterial viability is thus calculated by dividing numbers of bacteria in control samples by the number surviving in the treated samples. […].
Test organisms Escherichia coli (ATCC 10536), Salmonella typhimurium (ATCC 13311) and Pseudomonas aeruginosa (ATCC 15442) are used. For Pseudomonas aeruginosa the test solution contains additionally 0.1% EDTA.
A large number of commercially-available materials including a collection of 900 perfumery chemicals is tested. The materials are dissolved in dimethylsulfoxide (DMSO) in a concentration of 4% (w/v). An aliquot (5 μl or 10 μl) of each solution is added to individual wells of microtiter plates. 200 μl of Mueller-Hinton broth containing a bacterial inoculum of 2.5×10^6 cfu (colony forming units) is added. After 30 s and 60 s contact time, 20 μl of the test solution is removed and added to 180 μl of a neutralising solution (containing 3 g lecithin, 30 g Tween® 80, 5 g sodium thiosulfate, 1 g histidine, 30 g saponin, 8.5 g sodium chloride, 1 g tryptone and 1000 ml water). After 1 min incubation, the samples are serially diluted 1:1 in Micotiter-plates containing 100 μl Mueller-Hinton Broth per well, and then incubated for 24 h at 37° C. The maximal dilution showing bacterial growth is recorded to determine the number of surviving bacteria (so-called most probable number method, which is a well-known microbiological method), and results are compared to control samples without added perfumery chemicals. Reduction in bacterial viability is thus calculated by dividing numbers of bacteria in control samples by the number surviving in the treated samples.

[2] = Pyrene 1:3 ratio (I373/I384) for micelle formation; format: physicochemical
Experimental: To 100 μl of each dilution, 5 μl of a pyrene solution (0.4 mM in ethanol) is added. After equilibration, the fluorescence of the solution with an excitation at 335 nm is determined.
To 100 μl of each dilution, 5 μl of a pyrene solution (0.4 mM in ethanol) is added. After equilibration, the fluorescence of the solution with an excitation at 335 nm is determined on an LS-50 Perkin Elmer fluorescence spectrometer.

CC(C)=CCC/C(C)=C/COC=O [Geranyl-formiate]
antibacterial effect in formulations according to the present invention (in words) [1]: do not provide a sufficient antibacterial effect | rapid (30 s) bactericidal activity on gram-negative bacteria (class) [1]: without activity

CCC(=O)OC/C=C(\C)CCC=C(C)C [Geranyl-propionate]
antibacterial effect in formulations according to the present invention (in words) [1]: do not provide a sufficient antibacterial effect | rapid (30 s) bactericidal activity on gram-negative bacteria (class) [1]: without activity

CCCCCCCCCCCCOS(=O)(=O)[O-].[Na+] [Sodium dodecylsulfate]
ratio (I373)/(I384) (pyrene 1:3 ratio) ([2]; CONC 0.01% in water): 1.11 | ratio (I373)/(I384) (pyrene 1:3 ratio) ([2]; CONC 0.02% in water): 1.12 | ratio (I373)/(I384) (pyrene 1:3 ratio) ([2]; CONC 0.04% in water): 1.08 | ratio (I373)/(I384) (pyrene 1:3 ratio) ([2]; CONC 0.08% in water): 0.92 | ratio (I373)/(I384) (pyrene 1:3 ratio) ([2]; CONC 0.16% in water): 0.78 | ratio (I373)/(I384) (pyrene 1:3 ratio) ([2]; CONC 0.31% in water): 0.79 | ratio (I373)/(I384) (pyrene 1:3 ratio) ([2]; CONC 0.63% in water): 0.75 | ratio (I373)/(I384) (pyrene 1:3 ratio) ([2]; CONC 1.25% in water): 0.74

CC(=O)OCCC(C)CCC=C(C)C (centres unmarked) [citronellyl-actetate]
antibacterial effect in formulations according to the present invention (in words) [1]: do not provide a sufficient antibacterial effect | rapid (30 s) bactericidal activity on gram-negative bacteria (class) [1]: without activity

CC(C)=CCCC(C)CCOC=O (centres unmarked) [citronellyl-formiate]
antibacterial effect in formulations according to the present invention (in words) [1]: do not provide a sufficient antibacterial effect | rapid (30 s) bactericidal activity on gram-negative bacteria (class) [1]: without activity

CCC(=O)OCCC(C)CCC=C(C)C (centres unmarked) [citronellyl-propionate]
antibacterial effect in formulations according to the present invention (in words) [1]: do not provide a sufficient antibacterial effect | rapid (30 s) bactericidal activity on gram-negative bacteria (class) [1]: without activity

C=CC(C)(CCC=C(C)C)OC=O (centres unmarked) [linalyl-formiate]
antibacterial effect in formulations according to the present invention (in words) [1]: do not provide a sufficient antibacterial effect | rapid (30 s) bactericidal activity on gram-negative bacteria (class) [1]: without activity

C=CC(C)(CCC=C(C)C)OC(=O)CC (centres unmarked) [linalyl-propionate]
antibacterial effect in formulations according to the present invention (in words) [1]: do not provide a sufficient antibacterial effect | rapid (30 s) bactericidal activity on gram-negative bacteria (class) [1]: without activity

CC(C)=CCC/C(C)=C\COC=O [neryl-formiate]
antibacterial effect in formulations according to the present invention (in words) [1]: do not provide a sufficient antibacterial effect | rapid (30 s) bactericidal activity on gram-negative bacteria (class) [1]: without activity

CCC(=O)OC/C=C(/C)CCC=C(C)C [neryl-propionate]
antibacterial effect in formulations according to the present invention (in words) [1]: do not provide a sufficient antibacterial effect | rapid (30 s) bactericidal activity on gram-negative bacteria (class) [1]: without activity

Cocoamidopropylbetaine
ratio (I373)/(I384) (pyrene 1:3 ratio) ([2]; CONC 0.01% in water): 1.19 | ratio (I373)/(I384) (pyrene 1:3 ratio) ([2]; CONC 0.02% in water): 1.02 | ratio (I373)/(I384) (pyrene 1:3 ratio) ([2]; CONC 0.04% in water): 0.87 | ratio (I373)/(I384) (pyrene 1:3 ratio) ([2]; CONC 0.08% in water): 0.80 | ratio (I373)/(I384) (pyrene 1:3 ratio) ([2]; CONC 0.16% in water): 0.80 | ratio (I373)/(I384) (pyrene 1:3 ratio) ([2]; CONC 0.31% in water): 0.78 | ratio (I373)/(I384) (pyrene 1:3 ratio) ([2]; CONC 0.63% in water): 0.79 | ratio (I373)/(I384) (pyrene 1:3 ratio) ([2]; CONC 1.25% in water): 0.78

Diisopropyl-sulfosuccinate
ratio (I373)/(I384) (pyrene 1:3 ratio) ([2]; CONC 0.01% in water): 1.21 | ratio (I373)/(I384) (pyrene 1:3 ratio) ([2]; CONC 0.02% in water): 1.21 | ratio (I373)/(I384) (pyrene 1:3 ratio) ([2]; CONC 0.04% in water): 1.20 | ratio (I373)/(I384) (pyrene 1:3 ratio) ([2]; CONC 0.08% in water): 1.36 | ratio (I373)/(I384) (pyrene 1:3 ratio) ([2]; CONC 0.16% in water): 1.99 | ratio (I373)/(I384) (pyrene 1:3 ratio) ([2]; CONC 0.31% in water): 1.65 | ratio (I373)/(I384) (pyrene 1:3 ratio) ([2]; CONC 0.63% in water): 1.48 | ratio (I373)/(I384) (pyrene 1:3 ratio) ([2]; CONC 1.25% in water): 1.39

Sodium xylene sulfonate
ratio (I373)/(I384) (pyrene 1:3 ratio) ([2]; CONC 0.01% in water): 1.37 | ratio (I373)/(I384) (pyrene 1:3 ratio) ([2]; CONC 0.02% in water): 1.46 | ratio (I373)/(I384) (pyrene 1:3 ratio) ([2]; CONC 0.04% in water): 2.84 | ratio (I373)/(I384) (pyrene 1:3 ratio) ([2]; CONC 0.08% in water): 1.62 | ratio (I373)/(I384) (pyrene 1:3 ratio) ([2]; CONC 0.16% in water): 1.49 | ratio (I373)/(I384) (pyrene 1:3 ratio) ([2]; CONC 0.31% in water): 1.43 | ratio (I373)/(I384) (pyrene 1:3 ratio) ([2]; CONC 0.63% in water): 1.41 | ratio (I373)/(I384) (pyrene 1:3 ratio) ([2]; CONC 1.25% in water): 1.04
